Measurements reported in patent US11857601B2, “Pharmaceutical composition for cancer treatment comprising fusion protein including IL-2 protein and CD80 protein and anticancer drug” (GI INNOVATION, INC., priority 2020, dated 2024).

Experiments:
[1] = tested on: MDA-MB-231 cells; assay: Cancer cell killing, GI-101 and Ribociclib, MDA-MB-231 with PBMCs; format: cell-based, human; conditions: GI-101 100 nM, Ribociclib 913 nM, 24 hours, compared with co-culturing only cancer cells and PBMCs
Description: This experiment was to evaluate the effect of killing cancer cells by treating MDA-MB-231 cells (human breast cancer cells) with the test substance GI-101 alone or in combination with Ribociclib substance in an in vitro environment.
MDA-MB-231 cells were purchased from the Korea cell line bank and cultured in RPMI1640 medium (Gibco) containing 10% FBS (Gibco) and 1% antibiotic/antifungal agent (Gibco). For use in cancer cell killing test, the cells were harvested using trypsin (Gibco), and then suspended in RPMI1640 medium, and then dead cells and debris were removed using Ficoll (GE Healthcare Life Sciences) solution. The cells suspended in RPMI1640 medium were carefully layered on ficoll solution. […]
In order to identify the effect of killing the cells, a CytoTox Green reagent ([…]™ CytoTox Green, Satorius) that binds to the DNA of cells to be killed was prepared in 1 μl per 1 mL of RPMI1640 medium containing 5% human AB serum (Sigma). The prepared medium was used for dilution of the test substance, and the effect of killing the cells could be quantitatively identified by staining the cells to be killed when the test substance was co-cultured with cancer cell lines and PBMCs. […]

[2] = tested on: CT26 cells; assay: mGI-101 and Lenvatinib in CT26 allotransplanted tumor model; format: in vivo, BALB/c mice; conditions: end of the experiment, 10 mice per group
Description: (§1) CT26 cells were purchased from ATCC (USA) and cultured in RPMI1640 medium (Gibco) containing 10% FBS (Gibco) and 1% antibiotic/antifungal agent (Gibco). The cultured cells were harvested using trypsin (Gibco) and then suspended in PBS. In order to establish an allotransplanted tumor model, 1×10^6 CT26 cells were subcutaneously injected into the right flank of BALB/c female mice (7-week-old).
A certain period of time after the cell transplantation, the tumor volume was measured for animals with no abnormalities in the health condition of the animals, and the mice were assigned so that the average tumor volume of each group was less than 70-100 mm^3, each group including 10 mice.
In the case of Lenvatinib powder, the dose was calculated and weighed, and it was prepared to the dose concentration using a 0.5% methyl cellulose excipient. In order to minimize the loss of the test substance, the doses for 3 or 4 days were weighed, and prepared using the excipient on the day of administration and injected.
Clinical symptoms such as a disease and a behavioral change were observed once a day during the test period, and deceased animals were identified, and the mice were sacrificed when the tumor size reached a size of 4,000 mm^3.
The tumor volume before administration of each subject was set as the value measured at the time of grouping.
(§2) All statistical calculations were performed using Prism 8.0 (Graph Pad Software Inc, USA). The comparison of tumor volume measurements was made through two-way analysis of variance followed by Tukey's multiple comparison test. A p value of less than 0.05 was considered significant.

[3] = tested on: Renca cells; assay: mGI-101 and Lenvatinib in Renca allotransplanted tumor model; format: in vivo, BALB/c mice
Description: as §1, with “Renca” for “CT26”, “5×10^6 Renca” for “1×10^6 CT26”, “back” for “right flank”, “(8-week-old).” for “(7-week-old).”
A certain period of time after cell inoculation of the tumor grafts of the mice, the tumor volume was measured for animals with no abnormalities in the health condition of the animals, and the mice were randomly selected and assigned, each group including 10 mice.
The death of the mouse, the type of general symptoms, the date of onset, and the severity of symptoms were observed once a day during the test period, and recorded for each subject.
The tumor volume before administration of each subject was set as the value measured at the time of grouping, and the anti-tumor efficacy was evaluated as compared with the vehicle control.
as §2

[4] = mGI-101 twice a week (BIW), Lenvatinib daily, 10 mice per group

| Substance | effect of killing cancer cells [1] | number of mice with tumor growth inhibition rate of 30% or more [2] [mice] | number of mice with tumor growth inhibition rate of 50% or more [2] [mice] | number of mice with tumor growth inhibition rate of 80% or more [2] [mice] | number of mice with tumor growth inhibition rate of 30% or more ([3]; mGI-101 alone once a week) [mice] | number of mice with tumor growth inhibition rate of 50% or more ([3]; mGI-101 alone once a week) [mice] | number of mice with tumor growth inhibition rate of 80% or more ([3]; mGI-101 alone once a week) [mice] | number of mice with tumor growth inhibition rate of 30% or more [3, 4] [mice] | number of mice with tumor growth inhibition rate of 50% or more [3, 4] [mice] | number of mice with tumor growth inhibition rate of 80% or more [3, 4] |
| --- | --- | --- | --- | --- | --- | --- | --- | --- | --- | --- |
| GI101: fusion protein: human CD80 fragment, Ig hinge, Fc domain, linker, IL-2 variant (2M) (R38A, F42A); SEQ ID NO: 9 | co-culturing only cancer cells and PBMCs, the effect of killing cancer cells was identified, and tended to be higher than that of treatment with GI-101 alone |  |  |  |  |  |  |  |  |  |
| mGI101: fusion protein: mouse CD80, Ig hinge, Fc domain, linker, IL-2 variant (2M) (R38A, F42A); SEQ ID NO: 15 |  | 6 | 2 | 1 | 5 | 2 | 1 | 3 | 1 | no mouse |
